As usually defined, the IC50 is the concentration that inhibits the measured activity by half. A word on the Kd: it is the constant that tells how readily two partners part at equilibrium.

Here are results for five molecules from patent US12378278B2, “Mimetics of heparin oligosaccharides” (Board of Trustees of Michigan State University, priority 2019, dated 2025).

Assay [1] addresses FGF-2-heparin interaction (Homo sapiens, UniProt P09038). Put plainly: Competition SPR on the FGF-2-heparin interaction. The format is binding. The note with it: FGF-2 50 nM pre-mixed with compound, biotinylated heparin on SA sensor chip. As for the experimental part: In order to gain more insights into the structure-activity relationship between heparin and FGF-2, the competition assay was performed by the Linhardt group (FIG. 4). Biotinylated heparin was immobilized on the biosensor, and 27 pseudo-hexasaccharides (10 uM) was mixed with FGF-2 (50 nM) individually. […] For IC50 measurements, biotinylated heparin was immobilized on the SA sensor chip as described above, and FGF-2 (50 nM) was pre-mixed with different concentrations of pseudo-hexasaccharides. […] According to competition SPR results, successive fully sulfated disaccharide modules are required for potent competitive activity.

The target in another assay is FGF-2 (Homo sapiens, UniProt P09038). Nature of the assay: Direct binding to immobilized FGF-2 by surface plasmon resonance (SPR). The note with it: FGF-2 immobilized on CDH sensor chip. The text has this:
FGF-2 was immobilized on CDH sensor chip surface through EDC/NHS coupling, and fully sulfated (50), O-sulfated (50z) and N-sulfated (50m) pseudo-hexasaccharides were selected as analytes. […] The SPR results correlated well with that of heparin hexasaccharides (36, 51, 52) (Chem. Eur. J. 2006, 12 (34), 8664-8686).
FGF-2 was immobilized on sensor chip by primary amine coupling reaction. The surface of a CDH sensor chip (ForteBio, Inc., Molecular Devices, USA) was activated using freshly mixed N-hydroxysuccimide (NHS; 0.05 M) and 1-(3-(dimethylamino)propyl)-ethylcarbodiimide (EDC; 0.2 M) (1/1, v/v) in water, followed by the injection of FGF-2 (50 ug/ml) in PBS buffer. The remaining active esters were quenched by ethanolamine (1.0 M). All measurements were performed using 0.01% Tween 20 PBS buffer. Aqueous NaCl (2.0 M) was employed for regeneration to achieve baseline status.
(In SPR one partner is held on a chip, and binding of the other changes the refractive index at the surface.)

Chain of FGF-2-heparin interaction (P09038 143-288, species assumed): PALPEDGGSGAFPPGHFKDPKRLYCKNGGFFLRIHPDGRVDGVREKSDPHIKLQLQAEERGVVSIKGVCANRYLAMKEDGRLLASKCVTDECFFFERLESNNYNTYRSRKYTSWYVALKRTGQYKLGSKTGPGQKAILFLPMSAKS
Chain of FGF-2 (P09038 143-288, species assumed): as above

Regarding `CC(=O)NCCOC1OC(C(=O)O)C(OC2OC(CO)C(OCCC(=O)NCCOC3OC(C(=O)O)C(OC4OC(COS(=O)(=O)O)C(OCCC(=O)NCCOC5OC(C(=O)O)C(OC6OC(COS(=O)(=O)O)C(OCCC(=O)O)C(O)C6NS(=O)(=O)O)C(O)C5OS(=O)(=O)O)C(O)C4NS(=O)(=O)O)C(O)C3OS(=O)(=O)O)C(O)C2NS(=O)(=O)O)C(O)C1O` (centres unmarked) [Compound 50a], in assay [1], the IC50 is 10.8 µM.

In the case of `CC(=O)NCCOC1OC(C(=O)O)C(OC2OC(COS(=O)(=O)O)C(OCCC(=O)NCCOC3OC(C(=O)O)C(OC4OC(COS(=O)(=O)O)C(OCCC(=O)NCCOC5OC(C(=O)O)C(OC6OC(COS(=O)(=O)O)C(OCCC(=O)O)C(O)C6NS(=O)(=O)O)C(O)C5OS(=O)(=O)O)C(O)C4NS(=O)(=O)O)C(O)C3OS(=O)(=O)O)C(O)C2NC(C)=O)C(O)C1OS(=O)(=O)O` (centres unmarked) [Compound 50b], the IC50 in assay [1] came to 4 µM.

In the case of `CC(=O)NCCOC1OC(C(=O)O)C(OC2OC(COS(=O)(=O)O)C(OCCC(=O)NCCOC3OC(C(=O)O)C(OC4OC(COS(=O)(=O)O)C(OCCC(=O)NCCOC5OC(C(=O)O)C(OC6OC(COS(=O)(=O)O)C(OCCC(=O)O)C(O)C6NC(C)=O)C(O)C5OS(=O)(=O)O)C(O)C4NS(=O)(=O)O)C(O)C3OS(=O)(=O)O)C(O)C2NS(=O)(=O)O)C(O)C1OS(=O)(=O)O` (centres unmarked) [Compound 50r], the IC50 in assay [1] was determined as 3.5 µM.

`CC(=O)NCCOC1OC(C(=O)O)C(OC2OC(COS(=O)(=O)O)C(OCCC(=O)NCCOC3OC(C(=O)O)C(OC4OC(COS(=O)(=O)O)C(OCCC(=O)NCCOC5OC(C(=O)O)C(OC6OC(COS(=O)(=O)O)C(OCCC(=O)O)C(O)C6NC(C)=O)C(O)C5OS(=O)(=O)O)C(O)C4NC(C)=O)C(O)C3OS(=O)(=O)O)C(O)C2NC(C)=O)C(O)C1OS(=O)(=O)O` (centres unmarked) [Compound 50z] registered a Kd at FGF-2 (compound as analyte) of 0.94 µM.

On to “N-Acetamidoethyl O-(4-O-carboxyethyl-2-deoxy-2-sulfoamino-1-thio-α-D-glucopyranoside)-(1→4)-O-(6-O-carboxyl-1-thio-α-L-idopyranosiduronate)-(1→4)-O-(2-deoxy-2-sulfoamino-1-thio-α-D-glucopyranoside)-(1→4)-O-(6-O-carboxyl-1-thio-α-L-idopyranosiduronate)-(1→4)-O-(2-deoxy-2-sulfoamino-1-thio-α-D-glucopyranoside)-(1→4)-O-(6-O-carboxyl-1-thio-α-L-idopyranosiduronate) [Compound 50m]”, for which the “binding to FGF-2 (in words)” value at FGF-2 is recorded as “weak signal”.
